Where two headings read alike, the source gives them in different places.
Legend:
MCP-1 receptor B (CCR2B) = target: T1, MCP-1 receptor B (CCR2B) (Homo sapiens, UniProt P41597); assay: hMCP-1 receptor-binding assay
T1 construct: expressed in transfected cells; host or cells: CHO-K1 (clone 7, CHO-CCR2B), membrane fragments
T1 sequence (P41597 1-360 isoform P41597-2): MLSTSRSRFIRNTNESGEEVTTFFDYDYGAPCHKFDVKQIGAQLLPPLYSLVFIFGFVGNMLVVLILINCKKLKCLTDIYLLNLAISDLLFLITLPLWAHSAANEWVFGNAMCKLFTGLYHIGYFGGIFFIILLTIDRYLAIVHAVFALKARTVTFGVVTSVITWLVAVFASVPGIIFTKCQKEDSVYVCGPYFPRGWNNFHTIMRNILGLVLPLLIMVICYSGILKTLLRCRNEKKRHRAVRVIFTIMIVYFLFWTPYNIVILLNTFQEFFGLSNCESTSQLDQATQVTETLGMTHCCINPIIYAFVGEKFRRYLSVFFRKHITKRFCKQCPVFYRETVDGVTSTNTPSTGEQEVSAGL
From the text: a) hMCP-1 Receptor-binding Assay i) Clonning and expression of hMCP-1receptor
The MCP-1 receptor B (CCR^2B) cDNA was cloned by PCR from THP-1 cell RNA using suitable oligonucleotide primers based on the published MCP-1 receptor sequences (Charo et al., 1994, Proc. Natl. Acad Sci. USA, 91, 2752). The resulting PCR products were cloned into vector PCR-II™ (InVitrogen, San Diego, Calif.). Error free CCR2B cDNA was subcloned as a Hind III-Not I fragment into the eukaryotic expression vector pCDNA3 (InVitrogen) to generate pCDNA3/CC-CKR2A and pCDNA3/CCR2B respectively.
Linearised pCDNA3/CCR2B DNA was transfected into CHO-K1 cells by calcium phosphate precipitation (Wigler et al., 1979, Cell, 16, 777). Transfected cells were selected by the addition of Geneticin Sulphate (G418, Gibco BRL) at 1 mg/ml, 24 hours after the cells had been transfected. Preparation of RNA and Northern blotting were carried out as described previously (Needham et al., 1995, Prot. Express. Purific., 6, 134). CHO-K1 clone 7 (CHO-CCR^2B) was identified as the highest MCP-1 receptor B expressor. […]
ii) Preparation of membrane fragments […]
^125I MCP-1 was prepared using Bolton and Hunter conjugation (Bolton et al., 1973, Biochem. J., 133, 529; Amersham International plc]. Equilibrium binding assays were carried out using the method of Ernst et al., 1994, J. Immunol., 152, 3541. Briefly, varying amounts of ^125I-labeled MCP-1 were added to […] of purified CHO-CCR2B cell membranes in […] of Binding Buffer. After 1 hour incubation at room temperature the binding reaction mixtures were filtered and washed 5 times through a plate washer (Packard Harvester Filtermate™ 196). Scintillation fluid (25 μl, Microscint™-20, a high efficiency liquid scintillation counting cocktail for aqueous samples) was added to each well and the plate was covered with plate sealer and counted (Packard Top Count™). […] Non-specific binding was determined by the inclusion of a 200-fold molar excess of unlabelled MCP-1 in the reaction. […]

THP-1 cells = assay: MCP-1 mediated calcium flux in THP-1 cells; format: cell-based, human; conditions: stimulation of THP-1 cells with hMCP-1, approximate, from dose response curves; read-out: EC50 for transient rise in [Ca2+]i
Method: b) MCP-1 Mediated Calcium Flux in THP-1 Cells
The human monocytic cell line THP-1 was grown in a synthetic cell culture medium RPMI 1640 supplemented with 10% foetal calf serum, 2 mM glutamine and Penicillin-Streptomycin (at 50 μg streptomycin/ml, Gibco BRL). THP-1 cells were washed in HBSS (lacking Ca^2+ and Mg^2+) +1 mg/ml BSA and resuspended in the same buffer at a density of 3×10^6 cells/ml. The cells were then loaded with […]-FURA-2/AM for 30 min at 37° C., washed twice in HBSS, and resuspended at 1×10^6 cells/ml. […] The cuvette was placed in a fluorescence spectrophotometer (Perkin Elmer, Norwalk, Conn.) and preincubated for 4 min at 37° C. with stirring. Fluorescence was recorded over 70 sec and cells were stimulated by addition of hMCP-1 to the cuvette after 10 sec. [Ca^2+]i was measured by excitation at 340 nm and 380 nm alternately and subsequent measurement of the intensity of the fluorescence emission at 510 nm.
where the Kd for FURA-2 Ca^2+ complex at 37° C. was taken to be […]. Rmax is the maximal fluorescence ratio determined after addition of […] lonomycin, Rmin is the minimal ratio determined by the subsequent addition of a Ca^2+ free solution containing 5 mM EGTA, and Sf2/Sb2 is the ratio of fluorescence values at 380 nm excitation determined at Rmin and Rmax, respectively. […]

[1] = test system: hMCP-1 mediated chemotaxis of THP-1 cells; assay: hMCP-1 mediated chemotaxis assay; format: cell-based, human
Method: (§1) c) hMCP-1 Mediated Chemotaxis and RANTES Assay.
(§2) In vitro chemotaxis assays were performed using either the human monocytic cell line THP-1 or peripheral blood mixed monocytes obtained from fresh human blood purified by erythrocyte sedimentation followed by density gradient centrifugation over 9.6% (w/v) sodium metrizoate and 5.6% (w/v) polysaccharide, density 1.077 g/ml (Lymphoprep™ Nycomed). Cell migration through polycarbonate membranes was measured by enumerating those passing through either directly by Coulter counting or indirectly by use of a colourimetric viability assay measuring the cleavage of a tetrazolium salt by the mitochondrial respiratory chain (Scudiero D. A. et al. 1988, Cancer Res., 48, 4827-4833).
(§3) Chemoattractants were introduced into a 96-well microtiter plate which forms the lower well of a chemotaxis chamber fitted with a PVP-free 5 μm poresize polycarbonate adhesive framed filter membrane (NeuroProbe MB series, Cabin John, Md. 20818, USA) according to the manufacturer's instructions. The chemoattractant was diluted as appropriate in synthetic cell culture medium, RPMI 1640 (Gibco) or supplemented with 2 mM glutamine and 0.5% BSA, or alternatively with HBSS with Ca2+ and Mg2+ without Phenol Red (Gibco) plus 0.1% BSA. […] The plate was incubated at 37° C. for 3 h and the absorbance of the soluble formazan product was read on a microtitre plate reader at 450 nm. […]

[2] = test system: RANTES induced chemotaxis of THP-1 cells; assay: RANTES chemotaxis assay; format: cell-based; conditions: Homo sapiens, 2 nM RANTES as chemoattractant
Method: as §1, §2, §3

MCP-1: Monocyte Chemoattractant Protein-1, a C—C chemokine; ligand of the CCR2 receptor
IC50 (MCP-1 receptor B (CCR2B); membrane fragments from CHO-CCR2B cells, cold competition with 125I-labeled MCP-1, read-out: IC50 of MCP-1 binding to CCR2B): 0.11 nM | Kd (MCP-1 receptor B (CCR2B); membrane fragments from CHO-CCR2B cells, equilibrium binding): 0.12 nM | EC50 (THP-1 cells): ~2 nM | concentration of maximal cell migration (biphasic response) ([1]; hMCP-1 as chemoattractant, concentration dependent cell migration): 0.5-1.0 nm

O=C(O)c1cc2sccc2n1Cc1ccc(Cl)c(Cl)c1 [Compound No. 8, 4-(3,4-Dichlorobenzyl)thieno[3,2-b]pyrrole-5-carboxylic acid]
IC50 [2]: 2660 nM

Nc1cccc(-c2cc3c(cc(C(=O)O)n3Cc3ccc(Cl)c(Cl)c3)s2)c1 [Compound No. 13, 2-(3-Aminophenyl)-4-(3,4-dichlorobenzyl)thieno[3,2-b]pyrrole-5-carboxylic acid]
IC50 (MCP-1 receptor B (CCR2B); competition with 100 pM labelled MCP-1, CHO-CCR2B cell membranes, read-out: IC50 in the hMCP-1 receptor binding assay): 8300 nM

O=C(O)c1cc2occc2n1S(=O)(=O)c1ccc(Cl)c(Cl)c1 [Compound No. 20, 4-(3,4-Dichlorobenzenesulfonyl)furo[3,2-b]pyrrole-5-carboxylic acid]
IC50 ([1]; Homo sapiens, 1 nM MCP-1 as chemoattractant, THP-1 cells): 1660 nM
